According to patent publication US5607937A, “Piperazides of substituted phenylalanine derivatives as thrombin inhibitors” (priority 1993, dated 1997):

Assays:
factor Xa = factor Xa (Bos taurus, UniProt P00743); test: inhibition of factor Xa, dissociation constant Ki; assay type: biochemical; conditions: Table 1
Procedure: (§1) The biological activity of the compounds of the present invention was determined in vitro as well as in vivo.

[1] = plasma concentration in rats after intravenous administration; assay type: in vivo; conditions: rat
Procedure: (§3) A physiological NaCl solution of the substance to be tested was submitted to high pressure liquid chromatography (HPLC) in order to determine its characteristic substance-specific retention time with the chosen test conditions.
(§4) The substance to be tested was diluted in vitro in rat plasma. This solution was also submitted to HPLC to see whether the characteristic peak of the substance once again appeared at the substance-specific retention time.
(§5) Blood samples were taken at time intervals of 15 minutes, from which plasma samples were prepared by centrifugation; those samples were also submitted to HPLC to see whether the characteristic peak of the substance appeared again at the substance-specific retention time.
(§6) After administration, blood samples were taken from the test animals at time intervals from 2 to maximally 360 minutes and the blood level of the compounds to be tested was determined by HPLC.

[2] = plasma concentration in rats after oral administration; assay type: in vivo; conditions: rat
Procedure: as §3, §4, §5, §6

[3] = plasma concentration in rats after rectal administration; assay type: in vivo; conditions: rat
[4] = test system: coagulation in rat plasma; test: thrombin time in rat plasma after rectal application; assay type: in vivo
Procedure: (§2) After rectal administration of the compounds to be tested, the anticoagulant effect was determined in the plasma of experimental animals.

[5] = test system: coagulation in rat plasma; test: aPTT in rat plasma after rectal application; assay type: in vivo
Procedure: as §2

[6] = concentration in rat plasma in the anticoagulant study after rectal application; assay type: in vivo; conditions: for concentration at 0.5 h / concentration at 1 h / concentration at 2 h / concentration at 3 h: plasma; for concentration at 0.5 h: 30 min; for concentration at 1 h: 60 min; for concentration at 2 h: 120 min; for concentration at 3 h: 180 min; for Concentration in plasma: 0 min
[7] = plasma level in the stasis-induced thrombosis study, rectal application; assay type: in vivo; conditions: rat; for concentration at 0.5 h: 30 min; for concentration at 1 h: 60 min
Procedure: The antithrombotic activity of the compounds was determined in the rat on the model of the stasis-induced thrombosis according to Wessler et al. (J. Appl. Physiol. 14, 943-946, 1959). The thrombus was induced by serum 30 min after application of the inhibitor and macroscopically evaluated after 10 further min.
After rectal application, the compounds of the present invention are absorbed to an extent leading to antithrombotically active plasma levels. This has been shown with the model of the stasis-induced venous thrombosis in the rat according to Wessler et al. This method consisted in macroscopically evaluating thrombi induced by serum in jugular vein segments by means of a scale (0=liquid blood, 1=one or several small thrombi, 2=not fully closed vascular segment, 3=fully closed vascular segment). The antithrombotic effect is clearly dose-dependent.

thrombin = thrombin (Bos taurus, UniProt P00735)
tPA = tPA (Homo sapiens, UniProt P00750); test: inhibition of tPA, dissociation constant Ki
plasmin = plasmin (Homo sapiens, UniProt P00747); test: inhibition of plasmin, dissociation constant Ki
[8] = test system: coagulation in human plasma; test: prothrombin time (PT, Quick value) in human plasma
factor XIIa = molecular target: T1, factor XIIa (Homo sapiens, UniProt P00748); test: inhibition of factor XIIa, dissociation constant Ki
T1 sequence (P00748 373-615 limits assumed): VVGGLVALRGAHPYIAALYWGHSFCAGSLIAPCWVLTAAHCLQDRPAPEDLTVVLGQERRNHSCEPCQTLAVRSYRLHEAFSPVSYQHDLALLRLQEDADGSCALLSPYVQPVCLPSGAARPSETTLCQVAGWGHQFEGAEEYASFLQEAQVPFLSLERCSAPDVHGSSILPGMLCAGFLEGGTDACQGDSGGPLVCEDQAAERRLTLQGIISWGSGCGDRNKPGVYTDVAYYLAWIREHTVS

glandular kallikrein = glandular kallikrein (Sus scrofa, UniProt P00752); test: inhibition of glandular kallikrein, dissociation constant Ki
[9] = test system: coagulation in human plasma; test: activated partial thromboplastin time (aPTT) in human plasma
trypsin = molecular target: T2, trypsin (Bos taurus, UniProt P00760); test: inhibition of trypsin, dissociation constant Ki; assay type: biochemical; set-up: thrombin and the related enzymes trypsin, plasmin, factor Xa, factor XIIa
T2 sequence (P00760 24-246): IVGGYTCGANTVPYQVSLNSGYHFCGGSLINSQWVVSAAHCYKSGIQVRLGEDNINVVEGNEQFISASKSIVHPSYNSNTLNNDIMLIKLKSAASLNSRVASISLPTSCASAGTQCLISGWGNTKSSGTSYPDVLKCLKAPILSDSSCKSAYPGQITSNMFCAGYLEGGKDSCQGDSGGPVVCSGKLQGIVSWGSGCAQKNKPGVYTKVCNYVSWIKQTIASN
Procedure: as §1

factor Xa, sequence (P00743 234-492 limits assumed): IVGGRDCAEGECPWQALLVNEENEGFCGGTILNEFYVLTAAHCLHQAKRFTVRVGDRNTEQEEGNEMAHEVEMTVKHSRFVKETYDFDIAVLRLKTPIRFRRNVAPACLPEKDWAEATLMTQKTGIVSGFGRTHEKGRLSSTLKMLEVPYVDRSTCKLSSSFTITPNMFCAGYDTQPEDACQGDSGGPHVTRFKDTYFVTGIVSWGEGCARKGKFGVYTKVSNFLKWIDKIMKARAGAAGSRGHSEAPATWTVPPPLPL
factor Xa, sequence (P00743 41-180 partner limits assumed): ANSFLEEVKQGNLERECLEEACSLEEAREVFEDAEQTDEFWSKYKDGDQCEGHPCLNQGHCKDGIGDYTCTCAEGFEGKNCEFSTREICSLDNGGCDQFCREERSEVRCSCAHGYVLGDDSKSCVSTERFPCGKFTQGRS
glandular kallikrein, sequence (P00752 8-246): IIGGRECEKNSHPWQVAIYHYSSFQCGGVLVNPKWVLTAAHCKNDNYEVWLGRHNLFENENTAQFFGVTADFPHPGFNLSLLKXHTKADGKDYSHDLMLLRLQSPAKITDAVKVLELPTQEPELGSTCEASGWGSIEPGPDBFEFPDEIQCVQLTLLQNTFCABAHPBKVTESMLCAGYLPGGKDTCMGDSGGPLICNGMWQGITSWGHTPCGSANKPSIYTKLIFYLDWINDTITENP
plasmin, sequence (P00747 581-810 limits assumed): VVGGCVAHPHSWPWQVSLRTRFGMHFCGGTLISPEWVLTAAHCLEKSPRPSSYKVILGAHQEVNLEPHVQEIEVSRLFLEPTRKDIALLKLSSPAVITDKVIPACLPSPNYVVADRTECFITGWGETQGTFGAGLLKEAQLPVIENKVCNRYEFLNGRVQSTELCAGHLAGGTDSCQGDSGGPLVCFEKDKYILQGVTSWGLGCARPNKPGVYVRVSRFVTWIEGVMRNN
plasmin, sequence (P00747 97-580 partner limits assumed): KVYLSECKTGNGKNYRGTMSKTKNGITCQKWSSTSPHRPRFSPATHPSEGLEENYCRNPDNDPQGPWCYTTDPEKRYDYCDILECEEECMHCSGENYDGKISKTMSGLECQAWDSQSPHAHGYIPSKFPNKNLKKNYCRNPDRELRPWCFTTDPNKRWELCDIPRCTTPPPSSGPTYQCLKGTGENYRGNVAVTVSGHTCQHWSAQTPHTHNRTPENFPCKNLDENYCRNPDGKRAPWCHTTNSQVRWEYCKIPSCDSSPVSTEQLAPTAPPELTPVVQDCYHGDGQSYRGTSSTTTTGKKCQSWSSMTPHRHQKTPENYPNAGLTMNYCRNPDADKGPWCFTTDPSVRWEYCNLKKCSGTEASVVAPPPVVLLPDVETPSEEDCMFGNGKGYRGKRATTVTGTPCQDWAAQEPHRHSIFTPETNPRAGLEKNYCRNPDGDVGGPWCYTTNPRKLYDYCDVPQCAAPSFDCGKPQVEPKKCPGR
tPA, sequence (P00750 36-562): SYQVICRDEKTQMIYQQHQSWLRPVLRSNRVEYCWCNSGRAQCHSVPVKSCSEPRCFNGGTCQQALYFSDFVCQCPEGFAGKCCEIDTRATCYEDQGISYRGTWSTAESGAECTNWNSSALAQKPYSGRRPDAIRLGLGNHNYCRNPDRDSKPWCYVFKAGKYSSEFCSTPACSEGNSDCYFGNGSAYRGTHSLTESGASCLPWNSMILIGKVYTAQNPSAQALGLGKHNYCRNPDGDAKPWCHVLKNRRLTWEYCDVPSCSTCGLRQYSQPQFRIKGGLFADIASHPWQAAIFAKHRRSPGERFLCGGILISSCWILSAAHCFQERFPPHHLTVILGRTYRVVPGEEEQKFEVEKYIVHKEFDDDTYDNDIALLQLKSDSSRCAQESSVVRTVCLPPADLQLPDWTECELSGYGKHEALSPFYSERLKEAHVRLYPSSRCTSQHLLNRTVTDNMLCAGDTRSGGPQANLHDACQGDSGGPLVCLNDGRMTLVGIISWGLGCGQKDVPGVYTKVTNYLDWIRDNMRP

## CC(=O)N1CCN(C(=O)[C@H](Cc2cccc(C(=N)N)c2)NS(=O)(=O)c2ccc3ccccc3c2)CC1.Cl [Compound 2, Nα-(2-naphthylsulfonyl)-(L)-3-amidinophenylalanine-4-acetylpiperazide hydrochloride]
Factor Xa
  Ki: 35 µM
[1]; plasma, iv, i.v. 1 mg/kg, 5 min
  concentration at 5 min: 780 ng/mL
[1]; plasma, iv, i.v. 1 mg/kg, 15 min
  concentration at 0.25 h: 224 ng/mL
[1]; plasma, iv, i.v. 1 mg/kg, 30 min
  concentration at 0.5 h: 95 ng/mL
[1]; plasma, iv, i.v. 1 mg/kg, 60 min
  concentration at 1 h: 38 ng/mL
[1]; plasma, iv, i.v. 1 mg/kg, 120 min
  concentration at 2 h: 12 ng/mL
[1]; plasma, iv, i.v. 1 mg/kg, 180 min
  concentration at 3 h: 10 ng/mL
[1]; i.v.
  elimination in words: eliminated at comparable rate
[2]; plasma, oral 50 mg/kg, 30 min
  concentration at 0.5 h: 1200 ng/mL
[2]; plasma, oral 50 mg/kg, 60 min
  concentration at 1 h: 873 ng/mL
[2]; plasma, oral 50 mg/kg, 120 min
  concentration at 2 h: 333 ng/mL
[2]; plasma, oral 50 mg/kg, 180 min
  concentration at 3 h: 124 ng/mL
[2]; plasma, oral 50 mg/kg, 240 min
  concentration at 4 h: 44 ng/mL
[2]; plasma, oral 50 mg/kg, 300 min
  concentration at 5 h: 46 ng/mL
[2]; oral
  resorption in words: only slightly resorbed
[3]; plasma, rectal 100 mg/kg, 30 min
  concentration at 0.5 h: 32400 ng/mL
[3]; plasma, rectal 100 mg/kg, 60 min
  concentration at 1 h: 23100 ng/mL
[3]; plasma, rectal 100 mg/kg, 120 min
  concentration at 2 h: 5300 ng/mL
[3]; plasma, rectal 100 mg/kg, 180 min
  concentration at 3 h: 2700 ng/mL
[3]; plasma, rectal 100 mg/kg, 240 min
  concentration at 4 h: 1260 ng/mL
[3]; plasma, rectal 100 mg/kg, 300 min
  concentration at 5 h: 810 ng/mL
[3]; plasma, rectal 100 mg/kg, 360 min
  concentration at 6 h: 508 ng/mL
[3]; rectal
  detectable in plasma after rectal administration: ≥ 6 h
  detection/blood levels in words: absorbed by the intestine in particular after rectal administration to rats
[4]; rectal 5 mg/kg, 0 min
  Clotting time, Thrombin time: 32 s
[4]; rectal 5 mg/kg, 30 min
  Clotting time, Thrombin time: > 300 s
[4]; rectal 5 mg/kg, 60 min
  Clotting time, Thrombin time: 224 s
[4]; rectal 5 mg/kg, 120 min
  Clotting time, Thrombin time: 176 s
[4]; rectal 5 mg/kg, 180 min
  Clotting time, Thrombin time: 107 s
[4]; rectal 20 mg/kg, 0 min
  Clotting time, Thrombin time: 64 s
[4]; rectal 20 mg/kg, 30 min
  Clotting time, Thrombin time: > 300 s
[4]; rectal 20 mg/kg, 60 min
  Clotting time, Thrombin time: > 300 s
[4]; rectal 20 mg/kg, 120 min
  Clotting time, Thrombin time: > 300 s
[4]; rectal 20 mg/kg, 180 min
  Clotting time, Thrombin time: > 300 s
[5]; rectal 5 mg/kg, 0 min
  Clotting time, aPTT: 22.5 s
[5]; rectal 5 mg/kg, 30 min
  Clotting time, aPTT: 37 s
[5]; rectal 5 mg/kg, 60 min
  Clotting time, aPTT: 33 s
[5]; rectal 5 mg/kg, 120 min
  Clotting time, aPTT: 30 s
[5]; rectal 5 mg/kg, 180 min
  Clotting time, aPTT: 26.4 s
[5]; rectal 20 mg/kg, 0 min
  Clotting time, aPTT: 28 s
[5]; rectal 20 mg/kg, 30 min
  Clotting time, aPTT: 120 s
[5]; rectal 20 mg/kg, 60 min
  Clotting time, aPTT: 87 s
[5]; rectal 20 mg/kg, 120 min
  Clotting time, aPTT: 59 s
[5]; rectal 20 mg/kg, 180 min
  Clotting time, aPTT: 50 s
[6]; rectal 5 mg/kg
  concentration at 0.5 h: 296 ng/mL
  concentration at 1 h: 160 ng/mL
  concentration at 2 h: 60 ng/mL
  concentration at 3 h: 40 ng/mL
  Concentration in plasma: 0 ng/mL
[6]; rectal 20 mg/kg
  concentration at 0.5 h: 5440 ng/mL
  concentration at 1 h: 2090 ng/mL
  concentration at 2 h: 812 ng/mL
  concentration at 3 h: 660 ng/mL
  Concentration in plasma: 0 ng/mL
[7]; rectal 5 mg/kg
  concentration at 0.5 h: 228 ng/mL
  concentration at 1 h: 160 ng/mL
[7]; rectal 20 mg/kg
  concentration at 0.5 h: 1620 ng/mL
  concentration at 1 h: 998 ng/mL
[7]; rectal 100 mg/kg
  concentration at 0.5 h: 28700 ng/mL
  concentration at 1 h: 16100 ng/mL
thrombin
  thrombin inhibition in words: potent thrombin inhibitor
tPA
  Ki: 440 µM
plasmin
  Ki: 5.4 µM
[8]
  Concentr. to double the Prothrombin time: 0.90 µmol/L
  concentration to double the PT: ≤ 1 μmol/1
Factor XIIa
  Ki: 150 µM
Glandular kallikrein
  Ki: > 1000 µM
[9]
  Concentr. to double the aPTT: 0.36 µmol/L
  concentration to double the aPTT: ≤ 1 μmol/1
trypsin
  Ki: 0.044 µM
